Measured values published in patent publication US10335409B2 (priority 2012, dated 2019).

What was measured:
[1] = target: HCV NS3 protease domain genotype 3a (Hepatitis C virus genotype 3a, UniProt Q81258); experiment: Ki determination, NS3 protease genotype 3a (fluorogenic depsipeptide substrate); type: biochemical; conditions: 200 pM enzyme, NS4A peptide
In short: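 The NS3 protease domain (aa 1-181) with 20 μM NS4A peptide was used at 50 pM with 4 μM substrate (1b) or at 200 pM with 2 μM substrate (3a). Inhibitors (100 nM-5 pM) were pre-incubated 1 h at room temperature in HEPES/glycerol/DTT buffer with 10% DMSO. Steady-state rates (90-120 min) gave Ki via the Morrison equation, corrected for active enzyme and [S]/Km.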

[2] = test system: genotype 1b NS3/4a protease inhibitor resistant variant D168A transient HCV replicon in Huh-7-derived cells; experiment: Transient-transfected HCV replicon EC50, genotype 1b D168A; type: cell-based, hepatitis C virus; conditions: Hepatitis C virus, 72 h, read-out: EC50 1B D168A, transient-transfected replicon genotype 1b D168A resistant variant, 72 h
[3] = test system: genotype 4a (ED43) stable HCV replicon in Huh-7-derived cells; experiment: Stable subgenomic HCV replicon EC50, genotype 4a (Renilla luciferase); type: cell-based, hepatitis C virus; conditions: Hepatitis C virus, 72 h, read-out: EC50 4A RLUC
In short: (§1)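 Compounds, three-fold diluted, were applied to Huh-7-derived cells harbouring luciferase replicons (genotype 1a H77, 1b Con1, 2a JFH-1, 4a ED43, with strain-specific adaptive mutations). Seventy-two hours later, intracellular replication was gauged by Renilla luciferase activity and EC50 derived by regression.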

[4] = test system: genotype 1a (H77) wild type transient HCV replicon in Huh-7-derived cells; experiment: Transient-transfected HCV replicon EC50, genotype 1a wild type; type: cell-based, hepatitis C virus; conditions: Hepatitis C virus, 72 h, transient-transfected replicon genotype 1a wild type, read-out: EC50 1A WT
[5] = test system: genotype 1a NS3/4a protease inhibitor resistant variant R155K transient HCV replicon in Huh-7-derived cells; experiment: Transient-transfected HCV replicon EC50, genotype 1a R155K; type: cell-based, hepatitis C virus; conditions: Hepatitis C virus, 72 h, read-out: EC50 1A R155K, transient-transfected replicon genotype 1a R155K resistant variant, 72 h
[6] = test system: genotype 2a (JFH-1) stable HCV replicon in Huh-7-derived cells; experiment: Stable subgenomic HCV replicon EC50, genotype 2a (Renilla luciferase); type: cell-based, hepatitis C virus; conditions: Hepatitis C virus, stable replicon genotype 2a, 72 h, read-out: EC50 2A RLUC
In short: as §1

[7] = test system: genotype 3a (S52) wild type transient HCV replicon in Huh-7-derived cells; experiment: Transient-transfected HCV replicon EC50, genotype 3a wild type; type: cell-based, hepatitis C virus; conditions: Hepatitis C virus; transient-transfected replicon genotype 3a wild type, 72 h; read-out: EC50 3A WT
[8] = test system: genotype 1b (Con1) wild type transient HCV replicon in Huh-7-derived cells; experiment: Transient-transfected HCV replicon EC50, genotype 1b wild type; type: cell-based, hepatitis C virus; conditions: Hepatitis C virus, 72 h, transient-transfected replicon genotype 1b wild type, read-out: EC50 1B WT
[9] = test system: genotype 3a (S52) stable HCV replicon in Huh-7-derived cells; experiment: Stable subgenomic HCV replicon EC50, genotype 3a (Renilla luciferase); type: cell-based, hepatitis C virus; conditions: Hepatitis C virus, 72 h, read-out: EC50 3A RLUC
[10] = target: HCV NS3 protease domain genotype 1b (Hepatitis C virus genotype 1b (isolate Con1), UniProt Q9WMX2, E1202G); experiment: Ki determination, NS3 protease genotype 1b (fluorogenic depsipeptide substrate); type: biochemical; conditions: 50 pM enzyme, NS4A peptide
Chain of HCV NS3 protease domain genotype 1b (Q9WMX2 1027-1208 E1202G): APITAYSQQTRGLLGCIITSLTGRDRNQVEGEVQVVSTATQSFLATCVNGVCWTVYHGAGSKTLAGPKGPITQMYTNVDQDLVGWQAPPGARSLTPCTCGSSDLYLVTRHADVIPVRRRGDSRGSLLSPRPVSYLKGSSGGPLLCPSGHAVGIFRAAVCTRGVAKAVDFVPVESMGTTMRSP

[11] = test system: genotype 1a (H77) stable HCV replicon in Huh-7-derived cells; experiment: Stable subgenomic HCV replicon EC50, genotype 1a (Renilla luciferase); type: cell-based, hepatitis C virus; conditions: Hepatitis C virus, stable replicon genotype 1a, 72 h, read-out: EC50 1A RLUC
In short: as §1

[12] = test system: genotype 1b (Con1) stable HCV replicon in Huh-7-derived cells; experiment: Stable subgenomic HCV replicon EC50, genotype 1b (Renilla luciferase); type: cell-based, hepatitis C virus; conditions: Hepatitis C virus, stable replicon genotype 1b, 72 h, read-out: EC50 1B RLUC
In short: as §1

Chain of HCV NS3 protease domain genotype 3a (Q81258 whole entry, looked up, the tested form may be a part): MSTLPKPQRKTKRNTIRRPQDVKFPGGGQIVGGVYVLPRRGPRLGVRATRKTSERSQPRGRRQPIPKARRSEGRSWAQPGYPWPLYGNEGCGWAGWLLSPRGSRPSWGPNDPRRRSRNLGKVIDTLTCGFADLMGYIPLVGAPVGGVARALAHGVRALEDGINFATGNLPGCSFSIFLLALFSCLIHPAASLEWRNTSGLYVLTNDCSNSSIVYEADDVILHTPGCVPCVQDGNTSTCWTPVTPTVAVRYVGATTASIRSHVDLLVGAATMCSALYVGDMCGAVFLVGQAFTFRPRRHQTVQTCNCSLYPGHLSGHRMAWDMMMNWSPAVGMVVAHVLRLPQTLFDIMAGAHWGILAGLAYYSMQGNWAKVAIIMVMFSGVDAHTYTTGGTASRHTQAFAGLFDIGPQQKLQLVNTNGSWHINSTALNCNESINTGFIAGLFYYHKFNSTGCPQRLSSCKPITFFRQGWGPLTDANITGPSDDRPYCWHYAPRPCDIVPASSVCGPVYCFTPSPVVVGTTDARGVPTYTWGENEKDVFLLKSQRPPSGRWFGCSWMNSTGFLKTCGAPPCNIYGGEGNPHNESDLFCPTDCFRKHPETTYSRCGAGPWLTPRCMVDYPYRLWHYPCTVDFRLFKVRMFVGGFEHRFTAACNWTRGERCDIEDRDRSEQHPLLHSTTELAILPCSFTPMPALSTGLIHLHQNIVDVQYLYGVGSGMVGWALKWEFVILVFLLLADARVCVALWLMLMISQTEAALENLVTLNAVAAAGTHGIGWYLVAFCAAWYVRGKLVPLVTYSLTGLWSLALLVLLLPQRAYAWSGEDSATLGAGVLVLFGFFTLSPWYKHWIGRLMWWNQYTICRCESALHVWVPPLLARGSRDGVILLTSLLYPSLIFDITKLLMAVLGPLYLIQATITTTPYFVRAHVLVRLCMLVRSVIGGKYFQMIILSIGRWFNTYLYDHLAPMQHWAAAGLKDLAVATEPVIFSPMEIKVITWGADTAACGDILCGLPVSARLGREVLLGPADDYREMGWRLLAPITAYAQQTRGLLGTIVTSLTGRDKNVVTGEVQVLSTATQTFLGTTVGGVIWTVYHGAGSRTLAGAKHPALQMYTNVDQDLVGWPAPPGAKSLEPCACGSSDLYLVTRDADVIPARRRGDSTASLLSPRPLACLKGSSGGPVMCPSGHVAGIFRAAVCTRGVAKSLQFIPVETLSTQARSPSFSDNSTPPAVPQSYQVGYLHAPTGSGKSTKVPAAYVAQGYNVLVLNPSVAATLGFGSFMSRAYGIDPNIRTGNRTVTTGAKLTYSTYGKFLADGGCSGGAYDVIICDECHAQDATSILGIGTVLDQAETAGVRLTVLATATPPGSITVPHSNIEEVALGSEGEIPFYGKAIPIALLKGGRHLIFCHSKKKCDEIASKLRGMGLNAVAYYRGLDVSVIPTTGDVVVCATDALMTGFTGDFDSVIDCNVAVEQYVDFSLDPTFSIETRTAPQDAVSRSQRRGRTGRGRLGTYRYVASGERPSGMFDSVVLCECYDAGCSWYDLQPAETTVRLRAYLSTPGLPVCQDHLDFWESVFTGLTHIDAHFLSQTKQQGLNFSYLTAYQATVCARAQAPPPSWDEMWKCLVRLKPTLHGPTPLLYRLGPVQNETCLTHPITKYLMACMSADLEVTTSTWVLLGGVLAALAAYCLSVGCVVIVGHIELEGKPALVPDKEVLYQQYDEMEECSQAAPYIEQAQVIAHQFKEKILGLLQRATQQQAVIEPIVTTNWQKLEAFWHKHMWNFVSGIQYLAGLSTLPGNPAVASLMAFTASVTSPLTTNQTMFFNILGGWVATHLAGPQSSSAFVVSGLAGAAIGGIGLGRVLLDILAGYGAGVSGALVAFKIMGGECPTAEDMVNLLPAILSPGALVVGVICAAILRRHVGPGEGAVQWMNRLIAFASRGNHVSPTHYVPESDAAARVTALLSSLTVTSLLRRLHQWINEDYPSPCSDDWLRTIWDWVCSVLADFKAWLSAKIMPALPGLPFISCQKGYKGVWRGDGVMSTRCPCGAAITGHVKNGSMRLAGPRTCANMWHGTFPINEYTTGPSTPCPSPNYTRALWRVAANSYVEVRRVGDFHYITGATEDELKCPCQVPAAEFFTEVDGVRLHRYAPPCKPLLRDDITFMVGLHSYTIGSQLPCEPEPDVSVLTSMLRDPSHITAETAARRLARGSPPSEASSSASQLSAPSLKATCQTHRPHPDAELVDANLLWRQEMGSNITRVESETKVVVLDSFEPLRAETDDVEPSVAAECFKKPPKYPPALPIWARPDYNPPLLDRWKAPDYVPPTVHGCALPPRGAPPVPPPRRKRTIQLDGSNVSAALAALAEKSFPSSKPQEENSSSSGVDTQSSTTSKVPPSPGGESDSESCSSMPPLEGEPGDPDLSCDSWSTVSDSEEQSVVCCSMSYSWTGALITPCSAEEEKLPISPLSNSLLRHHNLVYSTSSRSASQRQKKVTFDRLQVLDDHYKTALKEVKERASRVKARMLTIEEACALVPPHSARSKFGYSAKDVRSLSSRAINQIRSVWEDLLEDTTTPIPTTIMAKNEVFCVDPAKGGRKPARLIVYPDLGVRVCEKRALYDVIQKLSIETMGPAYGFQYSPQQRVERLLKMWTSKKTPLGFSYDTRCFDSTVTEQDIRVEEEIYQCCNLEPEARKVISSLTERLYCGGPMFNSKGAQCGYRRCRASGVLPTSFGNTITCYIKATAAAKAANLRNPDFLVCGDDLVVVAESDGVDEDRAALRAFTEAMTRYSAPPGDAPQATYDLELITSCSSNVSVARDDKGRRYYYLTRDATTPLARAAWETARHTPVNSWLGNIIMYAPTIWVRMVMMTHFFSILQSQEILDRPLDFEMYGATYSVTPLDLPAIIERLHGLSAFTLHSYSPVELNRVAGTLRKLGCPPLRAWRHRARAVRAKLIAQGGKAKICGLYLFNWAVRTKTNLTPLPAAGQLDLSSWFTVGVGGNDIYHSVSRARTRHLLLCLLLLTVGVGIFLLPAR

COc1ccc2nc3c(nc2c1)O[C@H]1CN(C(=O)[C@H](C(C)(C)C)NC(=O)O[C@@H]2C[C@@H]4C[C@@H]4[C@H]2CCCCC3)[C@H](C(=O)NC2(C(=O)NS(=O)(=O)C3CC3)C[C@H]2C(F)F)[C@@H]1C (stereo in doubt) [Example 33, (1aS,2aR,6S,9S,10S,11R,23aR,23bS)-6-tert-butyl-N-[(1 S,2R)-1-[(cyclopropylsulfonyl)carbamoyl]-2-(difluoromethyl)cyclopropyl]-15-methoxy-10-methyl-4,7-dioxo-1a,2,2a,4,5,6,7,10,11,19,20,21,22,23,23a,23b-hexadecahydro-1H,9H-8,11-methanocyclopropa[4′,5′]cyclopenta[1′,2′:18,19][1,10,3,6]dioxadiazacyclononadecino[11,12-b]quinoxaline-9-carboxamide]
Ki [1]: 0.06 nM
EC50 [2]: 4.2 nM
EC50 [3]: 2.3 nM
EC50 [4]: 2.6 nM
EC50 [5]: 2.5 nM
EC50 [6]: 4.9 nM
EC50 [7]: 5.3 nM
EC50 [8]: 1.6 nM
EC50 [9]: 16 nM
Ki [10]: 0.03 nM
EC50 [11]: 7.6 nM
EC50 [12]: 2.8 nM
